Source: PMC12655351, “Synthesis and Anticancer Activity Evaluation of New 5-((5-Nitrofuran-2-yl)allylidene)-2-thioxo-4-thiazolidinones” (Pharmaceuticals, 2025)
Values joined by “and” are separate entries in the source; they are usually repeats but may differ in a detail not shown here. Equal values may be shown once. Read-outs that look alike come from different tables or passages of the source.

Legend:
[1] = test system: TK-10; settings: for growth GP: TK-10, 10 μM; for growth GP / CC50: 48 h; for CC50: human
[2] = test system: CNS cancer; settings: CNS cancer subpanel
[3] = test system: Leukemia; assay: cells; settings: Homo sapiens; for GI50: read-out: MG_MID GI50; for CC50: read-out: MG_MID LC50
[4] = test system: U251; assay: NCI-60 SRB screen
[5] = test system: PC-3; settings: PC-3, 48 h
[6] = test system: SN12C; settings: 48 h
[7] = test system: Leukemia; settings: Leukemia subpanel
[8] = test system: NCI-H266; assay: NCI-60 SRB screen; settings: for GI50 / TGI: NCI-H266, 48 h; for CC50: read-out: LC50, NCI-H266, 48 h
[9] = test system: UACC-257; assay: cells; settings: Homo sapiens, UACC-257, 48 h; for CC50: read-out: LC50, UACC-257, 48 h
[10] = test system: NCI/ADR-RES; settings: 48 h
[11] = test system: NCI-H23; settings: for CC50: human
[12] = test system: Prostate Cancer; assay: cells; settings: Homo sapiens, read-out: MG_MID GI50
[13] = test system: HCT-15; assay: NCI-60 SRB screen; settings: HCT-15, 48 h
[14] = test system: EKVX; assay: NCI-60 SRB screen; settings: 48 h; for CC50: read-out: LC50, EKVX, 48 h
[15] = test system: MALME-3M; assay: NCI-60 SRB screen; settings: 48 h
[16] = test system: SK-OV-3; assay: cells; settings: Homo sapiens, SK-OV-3, 48 h
[17] = test system: CNS cancer; assay: cells; settings: Homo sapiens; for GI50: read-out: MG_MID GI50; for CC50: read-out: MG_MID LC50
[18] = test system: MDA-MB-231; assay: [3H]-thymidine incorporation assay; type: cell-based; settings: Homo sapiens; MDA-MB-231, 24 h of treatment
Protocol: (§1) Another method of assessing the cytotoxic effects of tested compounds, [^3H]-thymidine incorporation assay, was applied. This method provided the capability to analyze the antiproliferative activity of novel structures on MCF-7 and MDA-MB-231 through their ability to incorporate thymidine into the cells. The acquired results further confirmed the potent activity of the 14b compound as the most prominent structure among the novel compounds (Table 2). The test was carried out in triplicate at concentrations of 5, 15, and 30 μM for the MDA-MB-231 cell line and 1, 5, and 10 μM for the MCF-7 cell line.
(§2) Following the selection of cell lines for further study, the effects of all compounds on cell proliferation were evaluated on MCF-7 and MDA-MB-231 cell lines. Cells were seeded in 24-well plates and cultured as described above. Cells were treated with the compounds at concentrations 1, 5, and 10 μM, and 5, 15, and 30 μM for MCF-7 and MDA-MB-231 cell lines, respectively, for 24 h. Subsequently, 0.5 μCi [^3H]-thymidine was added for 4 h at 37 °C. Then, plates with cells were placed on the ice, the liquid was aspirated, and cells were washed twice with 1mL of 0.05 M Tris-HCl buffer comprising 0.11 M NaCl and precipitated by adding 1 mL per well of 5% trichloroacetic. After precipitation, the cells were dissolved with 1 mL of 0.1 M NaOH with 1% SDS (Sigma-Aldrich, St. Louis, MO, USA) at room temperature (RT). The cell lysates were transferred into scintillation vials containing 2 mL of scintillation fluid (Ultima Gold™ XR, PerkinElmer, MA, USA), and cell-associated radioactivity was measured using a Scintillation Counter 1900 TR, TRI-CARB (Packard, Perkin Elmer, Inc., San Jose, CA, USA). The [^3H]-thymidine uptake was expressed as a percentage of the control value.

[19] = test system: MCF-7; assay: [3H]-thymidine incorporation assay; type: cell-based; settings: Homo sapiens, MCF7; MCF-7, 24 h of treatment
Protocol: as §1, §2

[20] = test system: T-47D; assay: cells; settings: Homo sapiens, T47D, 48 h; for CC50: read-out: LC50
[21] = test system: HS 578T; assay: cells; settings: Homo sapiens, 48 h; for CC50: read-out: LC50
[22] = test system: T-47D; settings: 48 h
[23] = test system: HCC-2998; settings: for growth GP: HCC-2998, 10 μM, 48 h
[24] = test system: SN12C; assay: cells; settings: Homo sapiens, 48 h
[25] = test system: LOX IMVI; settings: 48 h; for growth GP: 10 μM; for CC50: human
[26] = test system: Renal Cancer; assay: cells; settings: Homo sapiens; for GI50: read-out: MG_MID GI50; for CC50: read-out: MG_MID LC50
[27] = test system: Breast cancer; settings: Breast cancer subpanel
[28] = test system: Ovarian cancer; settings: Ovarian cancer subpanel
[29] = test system: SK-MEL-28; assay: cells; settings: Homo sapiens, SK-MEL-28, 48 h
[30] = test system: SK-MEL-28
[31] = Homo sapiens, U-251, 48 h, U251, 48 h
[32] = Homo sapiens, U-251, 48 h, read-out: LC50, U251, 48 h

## O=C(O)CCCN1C(=O)/C(=C/C=C/c2ccc([N+](=O)[O-])o2)SC1=S [13b, 4-((Z)-5-((E)-3-(5-Nitrofuran-2-yl)allylidene)-4-oxo-2-thioxothiazolidin-3-yl)butanoic acid]
[1]
  growth GP: -97.38%
  CC50: 4.77 µM
[1]; TK-10, 48 h
  TGI: 3.18 µM and 2.03 µM
[2]
  MG_MID TGI: 2.09 µM
[3]
  GI50: 9.34 µM
  CC50: 87 µM
[4]; [31]
  GI50: 0.37 µM
[4]; [32]
  CC50: 4.23 µM
[4]; U251, 48 h
  GI50: 0.19 µM
[4]; read-out: LC50, U251, 48 h
  CC50: 3.16 µM
[5]
  GI50: 0.4 µM
  TGI: 3.10 µM and 2.02 µM
[6]; SN12C, 10 μM
  growth GP: -96.81%
[6]; SN12C
  GI50: 0.17 µM
[7]
  MG_MID TGI: 28.3 µM
[8]; Homo sapiens, 48 h
  GI50: 2.79 µM
  CC50: 76.1 µM
[8]
  GI50: 1.65 µM
  TGI: 11.9 µM and 9.78 µM
[9]
  CC50: 6.36 µM
[10]
  GI50: 0.26 µM
  TGI: 1.23 µM and 0.77 µM
[11]; NCI-H23, 10 μM, 48 h
  growth GP: -93.85%
[11]; NCI-H23, 48 h
  TGI: 3.09 µM and 2.04 µM
[11]; 48 h
  CC50: 5.7 µM
[12]
  GI50: 0.82 µM
[13]
  GI50: 0.11 µM
  TGI: 0.52 µM and 0.33 µM
[13]; Homo sapiens
  GI50: 0.18 µM
[14]
  GI50: 1.05 µM
  TGI: 4.24 µM and 2.52 µM
[14]; Homo sapiens
  GI50: 1.83 µM
  CC50: 9.84 µM
[15]; Homo sapiens, Malme-3M
  GI50: 0.24 µM
[15]; MALME-3M
  GI50: 0.15 µM
  TGI: 0.60 µM and 0.35 µM
[16]
  GI50: 2.73 µM
[16]; read-out: LC50, SK-OV-3, 48 h
  CC50: 28.1 µM
[17]
  GI50: 0.8 µM
  CC50: 6.68 µM
[18]
  IC50: 1.77 µM
[19]
  IC50: 3.97 µM
[20]; T-47D
  GI50: 0.34 µM
[20]
  CC50: > 100 µM
[21]
  CC50: > 100 µM
[22]
  GI50: 0.23 µM
[23]
  growth GP: -95.27%
[24]
  GI50: 0.34 µM
[25]; LOX IMVI
  growth GP: -96.12%
  TGI: 0.42 µM and 0.39 µM
[25]
  CC50: 0.81 µM
[26]
  GI50: 0.99 µM
  CC50: 7.48 µM
[27]
  MG_MID TGI: 2.15 µM
[28]
  MG_MID TGI: 2.99 µM

## O=C(O)CCCCCN1C(=O)/C(=C/C=C/c2ccc([N+](=O)[O-])o2)SC1=S [14b, 6-((Z)-5-((E)-3-(5-nitrofuran-2-yl)allylidene)-4-oxo-2-thioxothiazolidin-3-yl)hexanoic acid]
[1]
  growth GP: -95.04%
  CC50: 6.33 µM
[1]; TK-10, 48 h
  GI50: 1.85 µM
  TGI: 3.32 µM and 3.47 µM
[2]
  MG_MID TGI: 2.62 µM
[3]
  GI50: 0.41 µM
  CC50: 64.9 µM
[4]; [31]
  GI50: 0.57 µM
[4]; [32]
  CC50: 4.86 µM
[4]; U251, 48 h
  GI50: 0.34 µM
  TGI: 1.92 µM and 1.22 µM
[5]
  TGI: 3.15 µM and 3.30 µM
[6]; SN12C
  GI50: 0.26 µM
  TGI: 1.36 µM and 0.86 µM
[6]; human
  CC50: 3.24 µM
[7]
  MG_MID TGI: 11.35 µM
[8]; Homo sapiens, 48 h
  GI50: 2.21 µM
  CC50: 90.2 µM
[8]
  GI50: 1.96 µM
  TGI: 7.06 µM and 7.95 µM
[9]
  GI50: 1.6 µM
  CC50: 6.27 µM
[29]
  GI50: 1.64 µM
[29]; read-out: LC50, SK-MEL-28, 48 h
  CC50: 5.9 µM
[10]
  GI50: 0.43 µM
  TGI: 1.85 µM and 2.39 µM
[11]; NCI-H23, 48 h
  GI50: 1.23 µM
  TGI: 3.10 µM and 2.69 µM
[11]; 48 h
  CC50: 5.89 µM
[12]
  GI50: 1.26 µM
[13]
  GI50: 0.16 µM
  TGI: 0.51 µM and 0.35 µM
[13]; Homo sapiens
  GI50: 0.19 µM
[14]
  GI50: 1.68 µM
  TGI: 3.48 µM and 3.55 µM
[14]; Homo sapiens
  GI50: 1.74 µM
  CC50: 6.94 µM
[15]; Homo sapiens, Malme-3M
  GI50: 0.28 µM
[15]; Homo sapiens, Malme-3M, read-out: LC50, MALME-3M, 48 h
  CC50: 2.85 µM
[15]; MALME-3M
  GI50: 0.24 µM
  TGI: 0.76 µM and 0.72 µM
[15]; read-out: LC50, MALME-3M
  CC50: 2.72 µM
[30]; SK-MEL-28, 48 h
  GI50: 1.19 µM
  TGI: 3.11 µM and 2.71 µM
[30]; human, 48 h
  CC50: 6.21 µM
[16]
  GI50: 1.71 µM
[17]
  GI50: 1.14 µM
  CC50: 6.09 µM
[18]
  IC50: 1.6 µM
[19]
  IC50: 2.6 µM
[20]
  CC50: > 100 µM
[21]; HS 578T
  GI50: 1.44 µM
[21]
  CC50: > 100 µM
[23]
  growth GP: -95.72%
[23]; HCC-2998, 48 h
  GI50: 1.6 µM
  TGI: 3.32 µM and 2.98 µM
[24]
  GI50: 0.36 µM
[24]; read-out: LC50, SN12C, 48 h
  CC50: 3.89 µM
[25]; LOX IMVI
  growth GP: -95.58%
  GI50: 0.19 µM
  TGI: 0.42 µM and 0.39 µM
[25]
  CC50: 0.78 µM
[26]
  GI50: 1.98 µM
  CC50: 10.4 µM
[27]
  MG_MID TGI: 2.61 µM
[28]
  MG_MID TGI: 2.92 µM
